We go through twelve compounds from patent US20240174690A1, “ANNULATED 2-AMINO-3-CYANO THIOPHENES AND DERIVATIVES FOR THE TREATMENT OF CANCER” (BOEHRINGER INGELHEIM INTERNATIONAL GMBH, priority 2021, published 2024).

One data set addresses KRAS (G12C)::SOS1 (Homo sapiens (Human), UniProt P01116, C118S/C51S/C80L/G12C). As to the kind of experiment: KRAS::SOS1 AlphaScreen binding assay, KRAS G12C. The method, boiled down:
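AlphaScreen measurement of compound disruption of biotinylated, GDP-loaded KRAS 1-169 (10 nM; G12C 7.5 nM) binding to GST-SOS1 564-1049 (5 nM with G12D/G12C, 10 nM otherwise), with 10 μM GDP in PBS/0.1% BSA/0.05% Tween 20. Timing was 30 min compound preincubation, then 60 min with beads at room temperature; top concentration 100 μM, 4-parameter IC50.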

In the next data set the test system is AsPC-1 cells. As to the kind of experiment: AsPC-1 CTG proliferation assay (120 h) (pancreatic cancer, G12D). In kind it is cell-based. The note with it: Homo sapiens, ASPC1. The method in brief: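 CellTiter-Glo luminescence, normalised to DMSO wells, measured viability after 120 h compound exposure. Cells were AsPC-1 pancreatic cancer (G12D) plated at 2000 per well in RPMI/10% FCS the day before dosing. IC50 derived by four-parameter regression.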

A short description of data set [1]: Plasma protein binding assay (PPB), equilibrium dialysis, 10% FCS in PBS. In kind it is in vitro ADME. The note with it: bovine, read-out: PPB 10% FCS (% fu). The method, boiled down: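 Test compound (1-10 μmol/L) in 10% FCS in PBS was dialysed for 3-5 h at 37° C versus PBS ± dextran across a semipermeable membrane. LC-MS of both compartments after protein precipitation gave Cserum and Cbuffer, from which the unbound fraction fu was derived.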

Sequence of KRAS (G12C)::SOS1 (P01116 other isoform, or with tags, fused parts or gaps G12C/C51S/C80L/C118S): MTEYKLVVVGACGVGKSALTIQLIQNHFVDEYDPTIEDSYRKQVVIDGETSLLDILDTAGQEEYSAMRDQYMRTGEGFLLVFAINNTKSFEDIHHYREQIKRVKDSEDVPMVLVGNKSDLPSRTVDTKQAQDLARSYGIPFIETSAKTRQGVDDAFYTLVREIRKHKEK

Take `CO[C@H]1CCN(C)[C@@H]1[C@H](C)Oc1cc(-n2ccc(C(N)=O)n2)nc(-c2noc3c2CCC[C@@]32CCCc3sc(N)c(C#N)c32)n1` [II-201]: the results for the half-inhibitory concentration (IC50) at KRAS (G12C)::SOS1 and with AsPC-1 cells were 1 nM and 651 nM, respectively. Besides, the fraction unbound in data set [1] was 0.07.
As for `C[C@H](Oc1cc(-n2cc3ccn([C@H]4CCOC4)c(=O)c3n2)nc(-c2noc3c2CCC[C@@]32CCCc3sc(N)c(C#N)c32)n1)[C@@H]1CCCN1C` [II-202], the IC50 at KRAS (G12C)::SOS1 amounted to 1 nM; with AsPC-1 cells, 380 nM. In addition, the fraction unbound in data set [1] was found to be 0.05.
The like results for `C[C@H](Oc1cc(-n2cc3ccn([C@@H]4CCOC4)c(=O)c3n2)nc(-c2noc3c2CCC[C@@]32CCCc3sc(N)c(C#N)c32)n1)[C@@H]1CCCN1C` [II-203] were, in that order, 2 nM, 483 nM and 0.04.
The matching figures for `C[C@H](Oc1cc(-n2cc3ccn(C[C@H]4CCOC4)c(=O)c3n2)nc(-c2noc3c2CCC[C@@]32CCCc3sc(N)c(C#N)c32)n1)[C@@H]1CCCN1C` [II-204]: 1 nM, 508 nM and 0.03.
The matching figures for `C[C@H](Oc1cc(-n2cc3ccn([C@@H](C)c4ccccn4)c(=O)c3n2)nc(-c2noc3c2CCC[C@@]32CCCc3sc(N)c(C#N)c32)n1)[C@@H]1CCCN1C` [II-205]: 2 nM, 1310 nM and 0.06.
Turning to `C[C@H](Oc1cc(-n2cc3ccn(C4CCOCC4)c(=O)c3n2)nc(-c2noc3c2CCC[C@@]32CCCc3sc(N)c(C#N)c32)n1)[C@@H]1CCCN1C` [II-206], the IC50 is 2 nM on KRAS (G12C)::SOS1 and 194 nM in the data set with AsPC-1 cells. Moreover, the fraction unbound in data set [1] came out at 0.05.
The like results for `[2H]C([2H])([2H])N1C[C@H](F)C[C@H]1[C@H](C)Oc1cc(N2CCN(C([2H])([2H])[2H])C3(CC3)C2)nc(-c2noc3c2CCC[C@@]32CCCc3sc(N)c(C#N)c32)n1` [II-207] were, in that order, 6 nM, 82 nM and 0.09.
The matching figures for `C[C@H](Oc1cc(-n2ccc(-c3cn(C4CCOCC4)nn3)n2)nc(-c2noc3c2CCC[C@@]32CCCc3sc(N)c(C#N)c32)n1)[C@@H]1CCCN1C` [II-210]: 2 nM, 210 nM and 0.02.
The like results for `C[C@H](Oc1cc(-n2ccc(-c3cn([C@@H]4CCOC4)nn3)n2)nc(-c2noc3c2CCC[C@@]32CCCc3sc(N)c(C#N)c32)n1)[C@@H]1CCCN1C` [II-211] were, in that order, 2 nM, 297 nM and 0.02.
As for `C[C@H](Oc1cc(-n2ccc(-c3cn([C@H]4CCOC4)nn3)n2)nc(-c2noc3c2CCC[C@@]32CCCc3sc(N)c(C#N)c32)n1)[C@@H]1CCCN1C` [II-212], the IC50 was 2 nM at KRAS (G12C)::SOS1 and 170 nM with AsPC-1 cells. Also, in data set [1], the fraction unbound stood at 0.05.
The like results for `C[C@H](Oc1cc(-n2ccc(-c3cn(CC4(C)COC4)nn3)n2)nc(-c2noc3c2CCC[C@@]32CCCc3sc(N)c(C#N)c32)n1)[C@@H]1CCCN1C` [II-213] were, in that order, 2 nM, 275 nM and 0.02.
On to `CNC1CCN(c2cc(O[C@@H](C)[C@@H]3CCCN3C)nc(-c3noc4c3CCC[C@@]43CCCc4sc(N)c(C#N)c43)n2)CC1` [II-214], for which the IC50 was 9 nM on KRAS (G12C)::SOS1 and 3520 nM in the data set with AsPC-1 cells. For the same compound, the fraction unbound in data set [1] was found to be 0.81.
